Data set [1] is described as follows: In vivo stability in non-human primate blood samples. The settings on record: for In vivo stability in blood: non-human primate. The protocol: (§1) In a non-human primate imaging experiment, the blood samples were drawn from vein at 1 and 3 h post injection.
(§2) Stability of [^18F]F-ZW-cinacalcet. The photoredox labeling method allows access to a new category of PET agent bearing a SP^2-F bond. [^18F]F-ZW-cinacalcet has improved stability compared to the CF3 labeling method. The formulated [^18F]F-ZW-cinacalcet was first incubated in PBS (Phosphate buffered saline containing 8% EtOH), and aliquots were taken for analysis at different time points. […] Subsequently, the in vivo stability of [^18F]F-ZW-cinacalcet was tested in a non-human primate. After injection, a blood sample was collected at 1 and 3 h time points. […] Because the imaging was finished within the first hour, the metabolites were not determined in this study

The target of data set [2] is T1, CSR (Rattus norvegicus, UniProt P48442).
T1 construct: Normal rats were used as an animal model for initial CSR agent imaging; from tissue; host or cells: rat parathyroid (also lung and other tissues), in vivo and excised sections
T1 sequence (P48442 20-1079): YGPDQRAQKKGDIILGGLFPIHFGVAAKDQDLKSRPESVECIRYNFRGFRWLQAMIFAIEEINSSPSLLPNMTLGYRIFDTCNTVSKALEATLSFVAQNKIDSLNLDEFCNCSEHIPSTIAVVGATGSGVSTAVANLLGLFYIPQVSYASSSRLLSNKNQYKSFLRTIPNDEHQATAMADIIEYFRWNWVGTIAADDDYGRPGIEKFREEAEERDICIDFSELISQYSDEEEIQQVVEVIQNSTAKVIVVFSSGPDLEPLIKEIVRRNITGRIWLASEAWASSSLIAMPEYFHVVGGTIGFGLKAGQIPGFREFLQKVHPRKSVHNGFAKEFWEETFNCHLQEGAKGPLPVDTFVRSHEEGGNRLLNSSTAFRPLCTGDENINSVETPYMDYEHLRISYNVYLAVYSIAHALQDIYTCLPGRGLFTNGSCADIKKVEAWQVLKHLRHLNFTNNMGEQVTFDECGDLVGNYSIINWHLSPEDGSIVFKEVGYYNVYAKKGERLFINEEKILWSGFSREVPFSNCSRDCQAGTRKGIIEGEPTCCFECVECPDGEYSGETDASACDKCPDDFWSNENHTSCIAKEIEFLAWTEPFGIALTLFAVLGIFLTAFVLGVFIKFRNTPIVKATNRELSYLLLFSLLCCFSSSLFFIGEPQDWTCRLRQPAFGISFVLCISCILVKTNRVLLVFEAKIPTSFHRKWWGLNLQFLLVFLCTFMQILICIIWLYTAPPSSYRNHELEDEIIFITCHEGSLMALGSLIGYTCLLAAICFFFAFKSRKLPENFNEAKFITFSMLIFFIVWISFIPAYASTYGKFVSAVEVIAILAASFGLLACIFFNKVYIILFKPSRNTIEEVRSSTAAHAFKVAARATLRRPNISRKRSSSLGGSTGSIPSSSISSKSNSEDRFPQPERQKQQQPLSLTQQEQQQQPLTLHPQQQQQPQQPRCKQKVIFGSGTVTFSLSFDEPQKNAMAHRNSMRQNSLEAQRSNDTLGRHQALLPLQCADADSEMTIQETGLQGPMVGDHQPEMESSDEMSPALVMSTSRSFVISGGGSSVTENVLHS
Description: Small animal PET/CT imaging of parathyroid in rats (static and dynamic). It is filed as in vivo. The protocol: Normal rats were used as an animal model for initial CSR agent imaging. Surgical dissection of the mouse parathyroid gland is too technically difficult, in contrast to the rat which has approximately 10 times the body mass of a mouse. Analyses were performed by individuals with extensive experience on parathyroid identification for pathology. autoradiography, and microscope study. In brief, animals were anesthetized with isoflurane. For PET probes, dynamic PET imaging was performed after the administration of 1 to 2 mCi of tracer, and animals were imaged with 2 h dynamic scan. A CT scan was also obtained for anatomic registration and attenuation correction. Images were reconstructed to create representative dynamic images for the study (10 min epochs). These images were qualitatively graded to assess the visibility of the parathyroid gland against background tissues. PET kinetic modeling was also performed to evaluate the relative kinetics of uptake of the parathyroid gland compared to the thyroid and other tissues.
^18F-cinacalcet could detect parathyroid gland in rats by targeting CSR. Parathyroid gland are very small (3-5 mm in human) and generally below the detection limit of most imaging methods. The novel CSR PET agent ^18F-cinacalcet was injected in rat and small animal PET imaging was performed. […] In order to confirm the observed signal did come from the very small parathyroid gland instead of thyroid or other tissue, the rats were sacrificed and the localization of radioactivity in the gland tissue was evaluated by autoradiography coupled with pathology staining of neighboring slides.
Small animal-PET CT imaging of parathyroid in rodents. Because the parathyroid is rather small, rats were used instead of mice to evaluate the agent. Static PET scans were acquired in rats at 0.5 h, 1 h and 2 h post injection of [^18F]F-ZW-cinacalcet. Representative coronal PET images are shown in FIG. 15 panel A. Parathyroid could be visualized on the image at the early time point of 0.5 h with a radiotracer uptake of 0.28±0.16% ID/g and parathyroid/muscle ratio of 4.9±0.93.
Dynamic PET images of [^18F]F-ZW-cinacalcet in rats were acquired for 60 minutes. [^18F]F-ZW-cinacalcet accumulated into parathyroid at the earliest timepoints and peaked at about 7 min post injection (0.33±0.05% ID/g), followed by a gradual decline to 0.17±0.01% ID/g at 60 min post injection.
Uptake peaked at 2 min post injection (lung: 1.00±0.19% ID/g; heart: 0.95±0.14% ID/g), with similar kinetics until 10 min post injection. Then, the heart uptake dropped rapidly to 0.15±0.27% ID/g at 60 min post injection, whereas the lung uptake remained at a high level at 60 min post injection of 0.41±0.07% ID/g. In addition, the radiotracer was also observed entering into the brain with a stable uptake level of ˜0.2% ID/g.

Data set [3] in a line: Octanol water partition coefficient (Log P). It is filed as physicochemical. The settings on record: 1-octanol/water; 1-octanol and water system, average value. The text has this:
Determination of Octanol water Partition Coefficient (Log P).

Data set [4] deals with T1, CSR. Description: Autoradiography with matched CSR IHC staining of excised rat tissue. The conditions noted are these: rats. It is filed as in vivo. The method, then:
After the imaging of each animal, the parathyroid glands were carefully dissected out and the uptake in parathyroid gland was measured, then subsequently evaluated pathologically to confirm the histology. Autoradiography was performed to study its distribution in gland area. Optical imaging guidance during the surgical procedures was also performed using the developed CSR PET-fluorescence probes. During excision, the surgeon also graded the visibility of the lesions with and without the use of fluorescence. Other critical organs, including the thyroid gland, nearby tissues, and major organs were also dissected out to evaluate the relative uptake within these organs. The localization of radioactivity in the gland tissue was also confirmed by autoradiography coupled with pathology staining of neighboring slides.
^18F-cinacalcet could detect parathyroid gland in rats by targeting CSR. […] In order to confirm the observed signal did come from the very small parathyroid gland instead of thyroid or other tissue, the rats were sacrificed and the localization of radioactivity in the gland tissue was evaluated by autoradiography coupled with pathology staining of neighboring slides.
Autoradiography and pathology. […] Quantitative analysis of autoradiography and IHC staining was expressed as a mean integrated density (Mean IntDen). […]

Data set [5] in a line: In vitro stability of 18F-cinacalcet (incubation, HPLC purity). Type of data set: physicochemical. The method, then:
as §1, §2

Where [6] appears, read: dynamic PET, 2 min post injection.
Where [7] appears, read: dynamic PET, 60 min post injection.
[8] abbreviates: static PET, 0.5 h post injection.

On to `C[C@@H](NCCCc1cccc(C(F)(F)F)c1)c1ccc([18F])c2ccccc12` [[^18F]F-ZW-cinacalcet], for which the Blood metabolic stability result in data set [1] (Rhesus Macaque, overall judgement) is given as “acceptable stability for imaging applications”. Besides, the “In vivo stability in blood” value in data set [1] (1 h post injection) is “majority of the agent remained untouched”. The “In vivo stability in blood” value in data set [1] (1 h post injection, listed as 18F-cinacalcet) is reported as “rather stable”. Besides, the “In vivo stability in blood” value in data set [1] (3 h post injection) is “hydrophilic metabolite was observed”. In addition, the “In vivo stability in blood” value in data set [1] (3 h post injection, listed as 18F-cinacalcet) is listed as “significant metabolites are observed”. Moreover, on CSR [2] (dynamic PET), the “Brain uptake, stable level” value is ~0.2 % ID/g. In addition, on CSR [2] (setting [6]), the “Heart uptake at peak” value is 0.95±0.14 % ID/g and the “Lung uptake at peak” value is on record as 1.00±0.19 % ID/g. At CSR [2] (dynamic PET, 20 min post injection), the Muscle uptake is listed as < 0.06 % ID/g. At CSR [2] (setting [7]), this molecule showed a Heart uptake of 0.15±0.27 % ID/g, a Lung uptake of 0.41±0.07 % ID/g and a Parathyroid uptake of 0.17±0.01 % ID/g. The “Parathyroid uptake at peak” value at CSR [2] (dynamic PET, about 7 min post injection) is reported as 0.33±0.05 % ID/g. Also, at CSR [2] (dynamic PET, post injection), the “Time of peak lung and heart uptake” value came out at 2 min; the “Time of peak parathyroid uptake” value is recorded as “about 7 min”. In addition, on CSR [2] (small animal PET), the “PET signal in neck area” value is “clearly demonstrated two hot spots”. On CSR [2] (setting [8]), the Parathyroid radiotracer uptake worked out at 0.28±0.16 % ID/g and the Parathyroid/muscle ratio worked out at 4.9±0.93. Besides, at CSR [2] (static PET, 2 h time point), the Parathyroid radioactivity result is “reverted to the background level”. Also, the logP in data set [3] was determined as 1.95 ± 0.02. On CSR [4] (excised tissue sections), the “Parathyroid/thyroid ratio in autoradiography (Mean IntDen)” value came to 6.60±1.28. Also, at CSR [4] (neighboring slides), the “Localization of radioactivity by autoradiography and pathology staining” value was “correlated well with parathyroid gland”. The “In vitro stability, purity” value in data set [5] (6 h time point) is listed as > 90%. Also, the “Stability in PBS, purity” value in data set [5] (PBS containing 8% EtOH, 4 h post incubation) is listed as > 95%.

The term logP denotes a log measure of how a compound divides between an organic and an aqueous phase. Read a low logP as a more hydrophilic compound.

Values taken from patent US20250057994A1, “LABELED COMPOUNDS AND CALCIUM SENSING RECEPTOR LIGANDS FOR IMAGING AND USES THEREOF” (The University of North Carolina at Chapel Hill, priority 2021, published 2025).
